In patent US12568998B2, “Flavouring composition with balanced taste profile” (SYMRISE AG, priority 2021, dated 2026):
Entries after “also recorded” stand apart in the source; their conditions may differ.

Columns and labels:
[1] = Sensory descriptive analysis of ice tea prototypes, sweetness factor (Example 1); details: HC 10 ppm and/or HT 3 ppm
[2] = Sensory profiling of ice tea preparation, HT/HC ratio 1:3.33 (Example 2); details: tea base, 4 wt.-% HFCS, 0.10 wt.-% citric acid, HT 3 ppm and/or HC 10 ppm; for Acidity / Balance / Bitter / Complexity / Fruity-Juicy / Long lasting / Off-Notes / Onset Sweetness / Overall Sweetness / Syrupy / Tea: line scale (10 cm)
Experimental: In order to further validate the insights derived from Example 1, the interaction and main effects of HT and HC are to be shown in a setup in which a drinkable preparation with a tea base, 0.05 wt.-% lemon flavor, 4 wt.-% high fructose corn syrup, 0.1 wt.-% citric acid and 0.03 wt.-% trisodium citrate was prepared. That preparation was divided into four samples by varying the dosage of HC and HT resulting in one sample containing no HC and no HT (control), containing 10 ppm HC and no HT (HC main effect), containing no HC and 3 ppm HT (HT main effect) and, respectively, containing 10 ppm HC and 3 ppm HT (HT×HC interaction effect). […] The final preparations were profiled by an expert panel consisting of ten educated panelists (two measurements). Different sensorial attributes (ice tea language with focus on sweetness) were assessed and scored on an unstructured line scale (10 cm) for its perceived intensity. The results of the testing are shown below in Table 2 as well as in FIG. 1 and FIG. 2.

[3] = Sensory profiling of ice tea preparation, HT/HC ratios 1:1 and 1:6 (Example 4); details: tea base, 5 wt.-% HFCS, 0.18 wt.-% citric acid, line scale (10 cm)
Experimental: In order to further validate the insights derived from Example 1 and 2, the interaction and main effects of HT and HC are to be shown in a setup in which a drinkable preparation with a tea base, 0.05 wt.-% lemon flavor, 5 wt.-% high fructose corn syrup, 0.18 wt.-% citric acid and 0.03 wt.-% trisodium citrate was prepared. That preparation was divided into four samples by varying the dosage of HT and HC resulting in one sample containing no HT and no HC (control), containing 5 or 3 ppm HT and no HC (HT main effect), containing no HT and 5 or 18 ppm HC (HC main effect) and, respectively, containing 5 or 3 ppm HT and or 18 ppm HC (HT×HC interaction effect). […] The final preparations were profiled by an expert panel consisting of seven educated panelists (two measurements). Different sensorial attributes (ice tea language with focus on sweetness) were assessed and scored on an unstructured line scale (10 cm) for its perceived intensity. The results of the testing are shown below in Table 4 and 5 as well as in FIG. 4 to FIG. 7.

[4] = Dosing tests with an excess of hesperetin, sensory ranking (Example 3)
Experimental: A drinkable preparation with 7 wt.-% sucrose and 0.15 wt.-% citric acid was prepared. This preparation was used as a base composition for dosing tests with different dosing regimens of hesperetin dihydrochalcone and hesperetin. The different samples were evaluated by an expert panel consisting of five educated panelists and ranked on a scale from 0 to 9. The results of the testing are shown below in Table 3 as well as in FIG. 3.

[5] = J. Chem. Senses 1979, 4(1), 35-47; cited from earlier work
[6] = Acesulfame K Ice tea Base, 60 ppm
[7] = HFCS Ice tea Base, 2 wt. % High Fructose corn sirup
[8] = Invert Sugar Syrup Ice tea Base, 2 wt. % invert sugar syrup
[9] = Reb A Ice tea Base, 60 ppm rebaudioside A
[10] = Reb A/Reb D Ice tea Base, 60 ppm rebaudioside A/60 ppm rebaudioside D
[11] = Reb A/Reb M Ice tea Base, 60 ppm rebaudioside A/45 ppm rebaudioside M
[12] = Reb M/Reb D Ice tea Base, 45 ppm rebaudioside M/60 ppm rebaudioside D
[13] = Sucralose Ice tea Base, 100 ppm sucralose
[14] = Sugar Free Ice tea Base, no added sugar/sweetener

For `COc1ccc(CCC(=O)c2c(O)cc(O)cc2O)cc1O` [HC, hesperetin dihydrochalcone], the “ANOVA (sweetness factor)” value [1, 6] was −0.1, the “ANOVA (sweetness factor)” value [1, 7] was −0.9 and the “ANOVA (sweetness factor)” value [1, 8] was −1. For the same molecule, the “ANOVA (sweetness factor)” value [1, 9] was −0.5, the “ANOVA (sweetness factor)” value [1, 10] was −0.1 and the “ANOVA (sweetness factor)” value [1, 11] was 0. The “ANOVA (sweetness factor)” value [1, 12] was −0.3, the “ANOVA (sweetness factor)” value [1, 13] was −0.8 and the “ANOVA (sweetness factor)” value [1, 14] was −1.3. The Remarks [2] was “lingering,; also recorded: sweetener”, the Acidity [2] was 3.22 and the Balance [2] was 3.50. It also gave a Bitter [2] of 2.58, a Complexity [2] of 3.62 and a Fruity-Juicy [2] of 3.88. For the same molecule, the Long lasting [2] was 3.90, the Off-Notes [2] was 2.25 and the “Onset Sweetness” value [2] was 4.39. For the same molecule, the “Overall Sweetness” value [2] was 4.80, the Syrupy [2] was 3.70 and the Tea [2] was 4.08. It also gave an Acidity ([3]; HT 3 ppm and/or HC 18 ppm) of 3.12, a Balance ([3]; HT 3 ppm and/or HC 18 ppm) of 3.66 and a Bitter ([3]; HT 3 ppm and/or HC 18 ppm) of 1.94. The Complexity ([3]; HT 3 ppm and/or HC 18 ppm) was 4.58, the Fruity-Juicy ([3]; HT 3 ppm and/or HC 18 ppm) was 4.27 and the Long lasting ([3]; HT 3 ppm and/or HC 18 ppm) was 4.20. The Off-Notes ([3]; HT 3 ppm and/or HC 18 ppm) was 1.01, the “Onset Sweetness” value ([3]; HT 3 ppm and/or HC 18 ppm) was 4.99 and the “Overall Sweetness” value ([3]; HT 3 ppm and/or HC 18 ppm) was 5.60. It also gave a Syrupy ([3]; HT 3 ppm and/or HC 18 ppm) of 4.32, a Tea ([3]; HT 3 ppm and/or HC 18 ppm) of 4.01 and an Acidity ([3]; HT 5 ppm and/or HC 5 ppm) of 3.46. It also gave a Balance ([3]; HT 5 ppm and/or HC 5 ppm) of 3.68, a Bitter ([3]; HT 5 ppm and/or HC 5 ppm) of 1.93 and a Complexity ([3]; HT 5 ppm and/or HC 5 ppm) of 3.90. For the same molecule, the Fruity-Juicy ([3]; HT 5 ppm and/or HC 5 ppm) was 4.68, the Long lasting ([3]; HT 5 ppm and/or HC 5 ppm) was 3.11 and the Off-Notes ([3]; HT 5 ppm and/or HC 5 ppm) was 0.70. For the same molecule, the “Onset Sweetness” value ([3]; HT 5 ppm and/or HC 5 ppm) was 4.19, the “Overall Sweetness” value ([3]; HT 5 ppm and/or HC 5 ppm) was 4.46 and the Syrupy ([3]; HT 5 ppm and/or HC 5 ppm) was 3.96. For the same molecule, the Tea ([3]; HT 5 ppm and/or HC 5 ppm) was 4.11.

In the case of `COc1ccc([C@@H]2CC(=O)c3c(O)cc(O)cc3O2)cc1O` [HT, hesperetin], the “ANOVA (sweetness factor)” value [1, 6] is reported as −2.4, the “ANOVA (sweetness factor)” value [1, 7] is reported as −3.2 and the “ANOVA (sweetness factor)” value [1, 8] is reported as −3.3. The “ANOVA (sweetness factor)” value [1, 9] was −2.8, the “ANOVA (sweetness factor)” value [1, 10] was −2.4 and the “ANOVA (sweetness factor)” value [1, 11] was −2.3. The “ANOVA (sweetness factor)” value [1, 12] was −2.6, the “ANOVA (sweetness factor)” value [1, 13] was −3.1 and the “ANOVA (sweetness factor)” value [1, 14] was −3.6. The Acidity [2] was 3.71, the Balance [2] was 3.20 and the Bitter [2] was 2.93. It also gave a Complexity [2] of 3.06, a Fruity-Juicy [2] of 3.60 and a Long lasting [2] of 2.32. The Off-Notes [2] was 1.85, the “Onset Sweetness” value [2] was 3.14 and the “Overall Sweetness” value [2] was 3.39. The Syrupy [2] was 2.67, the Tea [2] was 4.30 and the “hesperetin concentration exhibiting off-tastes in the preparation” value [4] was “more than 30 ppm”. It also gave an Acidity ([3]; HT 3 ppm and/or HC 18 ppm) of 4.11, a Balance ([3]; HT 3 ppm and/or HC 18 ppm) of 3.24 and a Bitter ([3]; HT 3 ppm and/or HC 18 ppm) of 2.21. The Complexity ([3]; HT 3 ppm and/or HC 18 ppm) was 3.99, the Fruity-Juicy ([3]; HT 3 ppm and/or HC 18 ppm) was 4.19 and the Long lasting ([3]; HT 3 ppm and/or HC 18 ppm) was 2.61. For the same molecule, the Off-Notes ([3]; HT 3 ppm and/or HC 18 ppm) was 0.77, the “Onset Sweetness” value ([3]; HT 3 ppm and/or HC 18 ppm) was 4.22 and the “Overall Sweetness” value ([3]; HT 3 ppm and/or HC 18 ppm) was 4.53. The Syrupy ([3]; HT 3 ppm and/or HC 18 ppm) was 3.72, the Tea ([3]; HT 3 ppm and/or HC 18 ppm) was 4.39 and the Acidity ([3]; HT 5 ppm and/or HC 5 ppm) was 4.06. It also gave a Balance ([3]; HT 5 ppm and/or HC 5 ppm) of 3.94, a Bitter ([3]; HT 5 ppm and/or HC 5 ppm) of 1.87 and a Complexity ([3]; HT 5 ppm and/or HC 5 ppm) of 3.87. It also gave a Fruity-Juicy ([3]; HT 5 ppm and/or HC 5 ppm) of 4.32, a Long lasting ([3]; HT 5 ppm and/or HC 5 ppm) of 2.79 and an Off-Notes ([3]; HT 5 ppm and/or HC 5 ppm) of 0.58. The “Onset Sweetness” value ([3]; HT 5 ppm and/or HC 5 ppm) was 3.89, the “Overall Sweetness” value ([3]; HT 5 ppm and/or HC 5 ppm) was 4.07 and the Syrupy ([3]; HT 5 ppm and/or HC 5 ppm) was 3.59. For the same molecule, the Tea ([3]; HT 5 ppm and/or HC 5 ppm) was 4.16.

In the case of `COc1ccc(CCC(=O)c2ccccc2O)cc1O` [dihydrochalcone (1)], the taste [5] is given as “intensively sweet tasting”.

For `COc1ccc(CCC(=O)c2c(O)cccc2O)cc1O` [dihydrochalcone (2)], the taste [5] is listed as “tasteless”.
